# From patent publication US8791107B2, “N-substituted oxazinopteridines and oxazinopteridinones” (Takeda Pharmaceutical Company Limited, priority 2011, dated 2014)
# Molecular target: T1, PI3Kδ (Homo sapiens, UniProt O00329)
# T1 construct: The protein is full length and co-expressed with untagged PIK3R1; GST; purchased Invitrogen PV5274
# Assay: PI3Kδ inhibition, modified PIK3CD Adapta TR-FRET assay
# Assay type: biochemical
# Details: recombinant GST-tagged full length PIK3CD co-expressed with PIK3R1 (p85α); 2 μM ATP, 50 μM PIP2; read-out: PI3Kδ Inhibition (pIC50) (converted)
# Method in brief: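 Inhibition was derived from % conversion against positive and negative controls, with ADP read by Adapta Eu-antibody/tracer TR-FRET. Room-temperature reactions used GST-PIK3CD/p85α in HEPES pH 7.5 buffer (MgCl2, EGTA, NaCl, CHAPS, fresh DTT), 1% DMSO final and 12 concentrations. They were initiated by adding 2 μM ATP/50 μM PIP2 solution.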
# T1 sequence (O00329 whole entry): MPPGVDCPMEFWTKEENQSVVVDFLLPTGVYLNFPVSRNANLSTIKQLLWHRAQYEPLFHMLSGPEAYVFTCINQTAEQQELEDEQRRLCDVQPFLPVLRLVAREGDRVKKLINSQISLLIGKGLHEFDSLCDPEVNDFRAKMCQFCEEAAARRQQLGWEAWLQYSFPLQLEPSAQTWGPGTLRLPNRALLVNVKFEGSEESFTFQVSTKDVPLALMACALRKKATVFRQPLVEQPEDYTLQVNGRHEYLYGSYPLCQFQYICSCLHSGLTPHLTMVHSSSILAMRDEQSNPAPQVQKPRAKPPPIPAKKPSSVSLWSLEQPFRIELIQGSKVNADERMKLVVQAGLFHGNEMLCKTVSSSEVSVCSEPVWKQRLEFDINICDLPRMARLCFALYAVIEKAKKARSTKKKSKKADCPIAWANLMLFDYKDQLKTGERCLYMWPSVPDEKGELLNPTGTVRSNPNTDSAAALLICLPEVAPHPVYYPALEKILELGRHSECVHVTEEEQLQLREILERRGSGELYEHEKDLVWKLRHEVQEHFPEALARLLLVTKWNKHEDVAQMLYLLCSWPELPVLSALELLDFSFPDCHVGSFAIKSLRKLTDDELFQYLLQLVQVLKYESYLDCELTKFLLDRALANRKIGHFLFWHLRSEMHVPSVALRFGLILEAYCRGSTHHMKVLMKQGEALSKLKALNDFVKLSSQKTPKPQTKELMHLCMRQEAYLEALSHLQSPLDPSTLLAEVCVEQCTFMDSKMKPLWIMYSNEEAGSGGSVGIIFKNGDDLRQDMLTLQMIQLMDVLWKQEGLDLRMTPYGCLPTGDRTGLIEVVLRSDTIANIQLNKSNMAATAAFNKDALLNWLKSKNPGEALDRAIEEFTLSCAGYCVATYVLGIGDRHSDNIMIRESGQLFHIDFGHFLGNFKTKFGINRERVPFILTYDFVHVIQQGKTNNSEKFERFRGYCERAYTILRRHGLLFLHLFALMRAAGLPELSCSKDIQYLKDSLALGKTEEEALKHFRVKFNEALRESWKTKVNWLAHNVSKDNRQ
# T1 sequence (P27986 whole entry partner): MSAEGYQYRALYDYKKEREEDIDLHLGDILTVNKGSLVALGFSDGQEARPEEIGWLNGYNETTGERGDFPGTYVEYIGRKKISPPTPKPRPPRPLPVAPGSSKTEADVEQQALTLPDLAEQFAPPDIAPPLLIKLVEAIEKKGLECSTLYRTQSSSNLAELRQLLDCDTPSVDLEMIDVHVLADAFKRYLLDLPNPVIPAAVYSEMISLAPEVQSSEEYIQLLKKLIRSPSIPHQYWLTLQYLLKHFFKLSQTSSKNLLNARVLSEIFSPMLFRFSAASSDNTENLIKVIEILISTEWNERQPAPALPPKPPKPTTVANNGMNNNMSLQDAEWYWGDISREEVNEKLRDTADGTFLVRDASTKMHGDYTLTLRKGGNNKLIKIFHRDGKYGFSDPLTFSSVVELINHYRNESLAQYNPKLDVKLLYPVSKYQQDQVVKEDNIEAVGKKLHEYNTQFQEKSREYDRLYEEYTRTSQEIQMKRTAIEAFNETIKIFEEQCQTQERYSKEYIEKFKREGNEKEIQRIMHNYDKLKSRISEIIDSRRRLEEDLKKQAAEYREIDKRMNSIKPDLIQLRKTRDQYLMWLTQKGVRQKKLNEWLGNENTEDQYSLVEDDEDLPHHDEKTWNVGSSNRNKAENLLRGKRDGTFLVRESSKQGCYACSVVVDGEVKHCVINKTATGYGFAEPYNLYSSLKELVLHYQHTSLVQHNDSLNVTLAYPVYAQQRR
row,Compound,IC50 [nM]
1,"CNC(=O)Nc1ccc(-c2ncc3c(n2)N2CCOCC2CN3Cc2ccccc2)cc1 (centres unmarked) [Example 61, 1-(4-(5-benzyl-5,6,6a,7,9,10-hexahydro-[1,4]oxazino[3,4-h]pteridin-2-yl)phenyl)-3-methylurea]",631
2,"CNC(=O)Nc1ccc(-c2ncc3c(n2)N2CCOCC2CN3Cc2ccc(C)cc2)cc1 (centres unmarked) [Example 62, 1-methyl-3-(4-(5-(4-methylbenzyl)-5,6,6a,7,9,10-hexahydro-[1,4]oxazino[3,4-h]pteridin-2-yl)phenyl)urea]",794
3,"CNC(=O)Nc1ccc(-c2ncc3c(n2)N2CCOCC2CN3Cc2ccc(Cl)cc2)cc1 (centres unmarked) [Example 63, 1-(4-(5-(4-chlorobenzyl)-5,6,6a,7,9,10-hexahydro-[1,4]oxazino[3,4-h]pteridin-2-yl)phenyl)-3-methylurea]",2510
4,"CNC(=O)Nc1ccc(-c2ncc3c(n2)N2CCOCC2CN3CC2CC2)cc1 (centres unmarked) [Example 64, 1-(4-(5-(cyclopropylmethyl)-5,6,6a,7,9,10-hexahydro-[1,4]oxazino[3,4-h]pteridin-2-yl)phenyl)-3-methylurea]",39.8
5,"CS(=O)(=O)c1ccc(CN2C[C@@H]3COCCN3c3nc(-n4c(C(F)F)nc5ccccc54)ncc32)cc1 [Example 67, (R)-2-(2-(difluoromethyl)-1H-benzo[d]imidazol-1-yl)-5-(4-(methylsulfonyl)benzyl)-5,6,6a,7,9,10-hexahydro-[1,4]oxazino[3,4-h]pteridine]",5.01
6,"CC(C)(C)OC(=O)CN1C[C@@H]2COCCN2c2nc(-c3cccc4[nH]ccc34)ncc21 [Example 68, (R)-tert-butyl 2-(2-(1H-indol-4-yl)-6a,7,9,10-tetrahydro-[1,4]oxazino[3,4-h]pteridin-5(6H)-yl)acetate]",50.1
7,"O=C(O)CN1C[C@@H]2COCCN2c2nc(-c3cccc4[nH]ccc34)ncc21 [Example 69, (R)-2-(2-(1H-indol-4-yl)-6a,7,9,10-tetrahydro-[1,4]oxazino[3,4-h]pteridin-5(6H)-yl)acetic acid]",2510
8,"O=C(CN1C[C@@H]2COCCN2c2nc(-c3cccc4[nH]ccc34)ncc21)NCC1CC1 [Example 70, (R)-2-(2-(1H-indol-4-yl)-6a,7,9,10-tetrahydro-[1,4]oxazino[3,4-h]pteridin-5(6H)-yl)-N-(cyclopropylmethyl)acetamide]",200
9,"CC(C)(O)CNC(=O)CN1C[C@@H]2COCCN2c2nc(-c3cccc4[nH]ccc34)ncc21 [Example 71, (R)-2-(2-(1H-indol-4-yl)-6a,7,9,10-tetrahydro-[1,4]oxazino[3,4-h]pteridin-5(6H)-yl)-N-(2-hydroxy-2-methylpropyl)acetamide]",398
10,"O=C(CN1C[C@@H]2COCCN2c2nc(-c3cccc4[nH]ccc34)ncc21)NCc1cc[nH]n1 [Example 72, (R)-2-(2-(1H-indol-4-yl)-6a,7,9,10-tetrahydro-[1,4]oxazino[3,4-h]pteridin-5(6H)-yl)-N-((1H-pyrazol-3-yl)methyl)acetamide]",126
11,"O=C(CN1C[C@@H]2COCCN2c2nc(-c3cccc4[nH]ccc34)ncc21)NCC1CCOCC1 [Example 73, (R)-2-(2-(1H-indol-4-yl)-6a,7,9,10-tetrahydro-[1,4]oxazino[3,4-h]pteridin-5(6H)-yl)-N-((tetrahydro-2H-pyran-4-yl)methyl)acetamide]",20
12,"NC(=O)c1ccccc1CN1CC2COCCN2c2nc(-c3cccc4[nH]ccc34)ncc21 (centres unmarked) [Example 74, 2-((2-(1H-indol-4-yl)-6a,7,9,10-tetrahydro-[1,4]oxazino[3,4-h]pteridin-5(6H)-yl)methyl)benzamide]",63.1
13,"NC(=O)c1ccc(F)cc1CN1CC2COCCN2c2nc(-c3cccc4[nH]ccc34)ncc21 (centres unmarked) [Example 75, 2-((2-(1H-indol-4-yl)-6a,7,9,10-tetrahydro-[1,4]oxazino[3,4-h]pteridin-5(6H)-yl)methyl)-4-fluorobenzamide]",316
14,"NC(=O)c1cccc(CN2CC3COCCN3c3nc(-c4cccc5[nH]ccc45)ncc32)c1 (centres unmarked) [Example 76, 3-((2-(1H-indol-4-yl)-6a,7,9,10-tetrahydro-[1,4]oxazino[3,4-h]pteridin-5(6H)-yl)methyl)benzamide]",31.6
15,"NC(=O)c1ccc(F)c(CN2CC3COCCN3c3nc(-c4cccc5[nH]ccc45)ncc32)c1 (centres unmarked) [Example 77, 3-((2-(1H-indol-4-yl)-6a,7,9,10-tetrahydro-[1,4]oxazino[3,4-h]pteridin-5(6H)-yl)methyl)-4-fluorobenzamide]",50.1
16,"NC(=O)c1ccc(CN2CC3COCCN3c3nc(-c4cccc5[nH]ccc45)ncc32)cc1 (centres unmarked) [Example 78, 4-((2-(1H-indol-4-yl)-6a,7,9,10-tetrahydro-[1,4]oxazino[3,4-h]pteridin-5(6H)-yl)methyl)benzamide]",20

row,Compound,IC50 [nM]
1,"COc1cc(C(N)=O)ccc1CN1CC2COCCN2c2nc(-c3cccc4[nH]ccc34)ncc21 (centres unmarked) [Example 79, 4-((2-(1H-indol-4-yl)-6a,7,9,10-tetrahydro-[1,4]oxazino[3,4-h]pteridin-5(6H)-yl)methyl)-3-methoxybenzamide]",50.1
2,Cc1cccc(CN2CC3COCCN3c3nc(-c4cccc5[nH]ccc45)ncc32)n1 (centres unmarked) [Example 80],63.1
3,"c1cc(-c2ncc3c(n2)N2CCOCC2CN3Cc2nnc(C3CC3)o2)c2cc[nH]c2c1 (centres unmarked) [Example 81, 5-((5-cyclopropyl-1,3,4-oxadiazol-2-yl)methyl)-2-(1H-indol-4-yl)-5,6,6a,7,9,10-hexahydro-[1,4]oxazino[3,4-h]pteridine]",15.8
4,"O=C(CN1C[C@@H]2COCCN2c2nc(-c3cccc(CO)c3)ncc21)NCC1CCOCC1 [Example 82, (R)-2-(2-(3-(hydroxymethyl)phenyl)-6a,7,9,10-tetrahydro-[1,4]oxazino[3,4-h]pteridin-5(6H)-yl)-N-((tetrahydro-2H-pyran-4-yl)methyl)acetamide]",12.6
5,"CC(C)(O)c1cccc(-c2ncc3c(n2)N2CCOC[C@H]2CN3CC(=O)NCC2CCOCC2)c1 [Example 83, (R)-2-(2-(3-(2-hydroxypropan-2-yl)phenyl)-6a,7,9,10-tetrahydro-[1,4]oxazino[3,4-h]pteridin-5(6H)-yl)-N-((tetrahydro-2H-pyran-4-yl)methyl)acetamide]",1000
6,"CNC(=O)Nc1ccc(-c2ncc3c(n2)N2CCOCC2C(=O)N3[C@H](C)c2ccc(Cl)cc2)cc1 (stereo partly drawn) [Example 84, 1-(4-(5-((R)-1-(4-chlorophenyl)ethyl)-6-oxo-5,6,6a,7,9,10-hexahydro-[1,4]oxazino[3,4-h]pteridin-2-yl)phenyl)-3-methylurea]",126
7,"CNC(=O)Nc1ccc(-c2ncc3c(n2)N2CCOCC2C(=O)N3Cc2ccc(C(=O)OC)cc2)cc1 (centres unmarked) [Example 88, methyl 4-((2-(4-(3-methylureido)phenyl)-6-oxo-6a,7,9,10-tetrahydro-[1,4]oxazino[3,4-h]pteridin-5(6H)-yl)methyl)benzoate]",6.31
8,"CNC(=O)Nc1ccc(-c2ncc3c(n2)N2CCOCC2C(=O)N3Cc2ccc(Cl)cc2)cc1 (centres unmarked) [Example 89, 1-(4-(5-(4-chlorobenzyl)-6-oxo-5,6,6a,7,9,10-hexahydro-[1,4]oxazino[3,4-h]pteridin-2-yl)phenyl)-3-methylurea]",63.1
9,"CNC(=O)Nc1ccc(-c2ncc3c(n2)N2CCOCC2C(=O)N3Cc2cccc(-n3cccc3)c2)cc1 (centres unmarked) [Example 90, 1-(4-(5-(3-(1H-pyrrol-1-yl)benzyl)-6-oxo-5,6,6a,7,9,10-hexahydro-[1,4]oxazino[3,4-h]pteridin-2-yl)phenyl)-3-methylurea]",5.01
10,"CNC(=O)Nc1ccc(-c2ncc3c(n2)N2CCOCC2C(=O)N3Cc2ccc(S(C)(=O)=O)cc2)cc1 (centres unmarked) [Example 91, 1-methyl-3-(4-(5-(4-(methylsulfonyl)benzyl)-6-oxo-5,6,6a,7,9,10-hexahydro-[1,4]oxazino[3,4-h]pteridin-2-yl)phenyl)urea]",0.794
11,"CNC(=O)Nc1ccc(-c2ncc3c(n2)N2CCOCC2C(=O)N3Cc2ccc(-n3cncn3)cc2)cc1 (centres unmarked) [Example 92, 1-(4-(5-(4-(1H-1,2,4-triazol-1-yl)benzyl)-6-oxo-5,6,6a,7,9,10-hexahydro-[1,4]oxazino[3,4-h]pteridin-2-yl)phenyl)-3-methylurea]",2
12,"CNC(=O)Nc1ccc(-c2ncc3c(n2)N2CCOCC2C(=O)N3CC2CC2(F)F)cc1 (centres unmarked) [Example 93, 1-(4-(5-((2,2-difluorocyclopropyl)methyl)-6-oxo-5,6,6a,7,9,10-hexahydro-[1,4]oxazino[3,4-h]pteridin-2-yl)phenyl)-3-methylurea]",5.01
13,"CNC(=O)Nc1ccc(-c2ncc3c(n2)N2CCOCC2C(=O)N3CCc2c(C)n[nH]c2C)cc1 (centres unmarked) [Example 94, 1-(4-(5-(2-(3,5-dimethyl-1H-pyrazol-4-yl)ethyl)-6-oxo-5,6,6a,7,9,10-hexahydro-[1,4]oxazino[3,4-h]pteridin-2-yl)phenyl)-3-methylurea]",2.51
14,"CNC(=O)Nc1ccc(-c2ncc3c(n2)N2CCOCC2C(=O)N3Cc2ccc(S(C)(=O)=O)cc2Cl)cc1 (centres unmarked) [Example 95, 1-(4-(5-(2-chloro-4-(methylsulfonyl)benzyl)-6-oxo-5,6,6a,7,9,10-hexahydro-[1,4]oxazino[3,4-h]pteridin-2-yl)phenyl)-3-methylurea]",0.794
15,"O=C1C2COCCN2c2nc(-c3cn[nH]c3)ncc2N1[C@H]1CCc2ccccc21 (stereo partly drawn) [Example 96, 5-((S)-2,3-dihydro-1H-inden-1-yl)-2-(1H-pyrazol-4-yl)-6a,7,9,10-tetrahydro-[1,4]oxazino[3,4-h]pteridin-6(5H)-one]",631
16,"CC(C)NS(=O)(=O)c1cccc(-c2ncc3c(n2)N2CCOCC2C(=O)N3Cc2ccc(S(C)(=O)=O)cc2)c1 (centres unmarked) [Example 98, N-isopropyl-3-(5-(4-(methylsulfonyl)benzyl)-6-oxo-5,6,6a,7,9,10-hexahydro-[1,4]oxazino[3,4-h]pteridin-2-yl)benzenesulfonamide]",6310
